Measured values taken from patent US20070149404A1, “Microbicidal compositions” (BASF AKTIENGESELLSCHAFT, priority 2003, published 2007).

Assays:
[1] = tested on: algae; assay: Efficacy against algal growth on painted plaster surface (BBA MOAT 33); type: cell-based; settings: 0.5% in paint; for MEAN ALGAL GROWTH RATING 28 days / MEAN ALGAL GROWTH RATING 56 days / % Improved after 56 days (algal growth): painted plaster; for MEAN ALGAL GROWTH RATING 28 days / MEAN ALGAL GROWTH RATING 56 days: leached 72 hours, mean of ratings 0-5; for MEAN ALGAL GROWTH RATING 28 days: 28 days after inoculation; for MEAN ALGAL GROWTH RATING 56 days: 56 days after inoculation; for % Improved after 56 days (algal growth): versus unpreserved paint
Experimental: (§1) Testing was performed according to the BS3900 G6 and BBA MOAT 33 methods for evaluation versus fungi and algae, respectively. The methods involve painting a substrate panel with the coating and leaching under running water for 72 hours. The substrates are incubated for 56 days after being inoculated with fungi or algae. Performance is judged by comparing with suitable control samples ie without biocide, a positive control and for fungi with substrate panels that have not been leached.
(§2) Performance rating on painted test substrates (Score of 0, 1 and 2 is considered as a pass) • 0=no growth • 1=trace of growth • 2=growth on 1-10% of test face • 3=growth on 10-30% of test face • 4=growth on 30-70% of test face
(§3) 5=growth on 70-100% of test face.

[2] = tested on: fungi; assay: Efficacy against fungal growth on painted plaster surface (BS3900 G6); type: cell-based; settings: 0.5% in paint; for Improvement against fungal growth on the plaster surface: as applied or after leaching; for MEAN FUNGAL GROWTH RATING - PLASTER SUBSTRATE 28 days leached / MEAN FUNGAL GROWTH RATING - PLASTER SUBSTRATE 56 days leached: constant running water for 72 hours; for MEAN FUNGAL GROWTH RATING - PLASTER SUBSTRATE 28 days leached / MEAN FUNGAL GROWTH RATING - PLASTER SUBSTRATE 56 days leached / MEAN FUNGAL GROWTH RATING - PLASTER SUBSTRATE 28 days as applied / MEAN FUNGAL GROWTH RATING - PLASTER SUBSTRATE 56 days as applied: mean of ratings 0-5; for % Improved After 56 days leached (fungal, plaster): leached 72 hours; for % Improved After 56 days leached (fungal, plaster) / % Improved After 56 days as applied (fungal, plaster): versus unpreserved paint; for MEAN FUNGAL GROWTH RATING - PLASTER SUBSTRATE 28 days as applied / MEAN FUNGAL GROWTH RATING - PLASTER SUBSTRATE 56 days as applied: no leaching with water; for % Improved After 56 days as applied (fungal, plaster): no leaching
Experimental: Testing was performed according to the BS3900 G6 and BBA MOAT 33 methods for evaluation versus fungi and algae, respectively. The methods involve painting a substrate panel with the coating and leaching under running water for 72 hours. […] Performance is judged by comparing with suitable control samples ie without biocide, a positive control and for fungi with substrate panels that have not been leached.
as §2, §3

[3] = tested on: fungi; assay: Efficacy against fungal growth on painted wooden surface (BS3900 G6); type: cell-based; settings: 0.5% in paint
Experimental: as §1, §2, §3

[4] = tested on: Micrococcus luteus; assay: Intrinsic activity, microtitre plate method, ML; type: cell-based; design: key: rating 0 = no activity to 5 = biostatic, may be biocide
Experimental: (§4) The chemistries were tested for their activity against a range of organisms via a microtitre plate method. The test organisms were: • ML—Micrococcus luteus • SA—Staphylococcus aureus • EC—Escherichia coli • PA—Pseudomonas aeruginosa • CF—Citrobacter freundii • PM—Proteus mirabilis • CA—Candida albicans • SC—Saccharomyces cerevisiae • AN—Aspergillus niger • PF—Penicillium funiculosum • AA—Alternaria alternata
(§5) Using the following rating scale: • 0=no activity • 1=minimal inhibition • 2=inhibition • 3=clear inhibition • 4=clear inhibition biostatic, may be biocide activity • 5=biostatic, may be biocide activity
(§6) Readings of 4 and possibly 3 were considered to be valid for biocidal applications.

[5] = tested on: Staphylococcus aureus; assay: Intrinsic activity, microtitre plate method, SA; type: cell-based; design: key: 0 = no activity to 5 = biostatic, may be biocide activity
Experimental: as §4, §5, §6

[6] = tested on: Escherichia coli; assay: Intrinsic activity, microtitre plate method, EC; type: cell-based; design: key: rating 0 = no activity to 5 = biostatic, may be biocide
Experimental: as §4, §5, §6

[7] = tested on: Pseudomonas aeruginosa; assay: Intrinsic activity, microtitre plate method, PA; type: cell-based; design: key: rating 0 = no activity to 5 = biostatic, may be biocide
Experimental: as §4, §5, §6

[8] = tested on: Citrobacter freundii; assay: Intrinsic activity, microtitre plate method, CF; type: cell-based; design: key: rating 0 = no activity to 5 = biostatic, may be biocide
Experimental: as §4, §5, §6

[9] = tested on: Proteus mirabilis; assay: Intrinsic activity, microtitre plate method, PM; type: cell-based; design: key: rating 0 = no activity to 5 = biostatic, may be biocide
Experimental: as §4, §5, §6

[10] = tested on: Bacteria; assay: Intrinsic activity, microtitre plate method, mean score over bacteria; type: cell-based, ML, SA, EC, PA, CF, PM; settings: performance against organisms/no of organisms, 0 to <3 poor, >3 inhibition, >4 biostasis, biocidal activity
Experimental: as §4, §5, §6

[11] = tested on: Candida albicans; assay: Intrinsic activity, microtitre plate method, CA; type: cell-based; design: key: rating 0 = no activity to 5 = biostatic, may be biocide
Experimental: as §4, §5, §6

[12] = tested on: Saccharomyces cerevisiae; assay: Intrinsic activity, microtitre plate method, SC; type: cell-based; design: key: rating 0 = no activity to 5 = biostatic, may be biocide
Experimental: as §4, §5, §6

[13] = tested on: Aspergillus niger; assay: Intrinsic activity, microtitre plate method, AN; type: cell-based; design: key: rating 0 = no activity to 5 = biostatic, may be biocide
Experimental: as §4, §5, §6

[14] = tested on: Penicillium funiculosum; assay: Intrinsic activity, microtitre plate method, PF; type: cell-based; design: key: rating 0 = no activity to 5 = biostatic, may be biocide
Experimental: as §4, §5, §6

[15] = tested on: Alternaria alternata; assay: Intrinsic activity, microtitre plate method, AA; type: cell-based; design: key: rating 0 = no activity to 5 = biostatic, may be biocide
Experimental: as §4, §5, §6

[16] = tested on: Fungi; assay: Intrinsic activity, microtitre plate method, mean score over fungi; type: cell-based, CA, SC, AN, PF, AA; settings: performance against organisms/no of organisms, 0 to <3 poor, >3 inhibition, >4 biostasis, biocidal activity
Experimental: as §4, §5, §6

[17] = tested on: test bacteria and fungi; assay: Intrinsic activity against bacteria and fungi, microtitre plate method, summary in words; type: cell-based; settings: at both concentrations (1000 and 500 ppm a.i.)
Experimental: as §4, §5, §6

Row | SMILES | MEAN ALGAL GROWTH RATING 28 days [1] | MEAN ALGAL GROWTH RATING 56 days [1] | % Improved after 56 days (algal growth) [1] [%] | Improvement against algal growth on the plaster surface [1] | Improvement against fungal growth on the plaster surface [2] | MEAN FUNGAL GROWTH RATING - PLASTER SUBSTRATE 28 days leached [2] | MEAN FUNGAL GROWTH RATING - PLASTER SUBSTRATE 56 days leached [2] | % Improved After 56 days leached (fungal, plaster) [2] [%] | MEAN FUNGAL GROWTH RATING - PLASTER SUBSTRATE 28 days as applied [2] | MEAN FUNGAL GROWTH RATING - PLASTER SUBSTRATE 56 days as applied [2] | % Improved After 56 days as applied (fungal, plaster) [2] [%] | Improvement against fungal growth on the wood surface [3] | ML rating ([4]; 500 ppm a.i.) | ML rating ([4]; 1000 ppm a.i.) | SA rating ([5]; 500 ppm a.i.) | SA rating ([5]; 1000 ppm a.i.) | EC rating ([6]; 500 ppm a.i.) | EC rating ([6]; 1000 ppm a.i.) | PA rating ([7]; 500 ppm a.i.) | PA rating ([7]; 1000 ppm a.i.) | further results
1 | CC(Cc1ccc(C(C)(C)C)cc1)CN1C[C@@H](C)O[C@@H](C)C1 (stereo partly drawn) [Fenpropimorph, 4-[2-Methyl-3-(p-tert.butyl-phenyl)-propyl]-2,6-cis-dimethylmorpholin] | 2 (2=growth on 1-10% of test face) | 3 (3=growth on 10-30% of test face) | 25.0 | exhibited an improvement | exhibited an improvement | 3 (3=growth on 10-30% of test face) | 3 (3=growth on 10-30% of test face) | 14 | 4 (4=growth on 30-70% of test face) | 4 (4=growth on 30-70% of test face) | 20 | only showed marginal improvement | 0 | 2 | 0 | 0 | 0 | 0 | 0 | 0 | CF rating ([8]; 500 ppm a.i.): 0; CF rating ([8]; 1000 ppm a.i.): 0; PM rating ([9]; 500 ppm a.i.): 0; PM rating ([9]; 1000 ppm a.i.): 0; Bacteria Mean Score ([10]; 500 ppm a.i.): 0.0; Bacteria Mean Score ([10]; 1000 ppm a.i.): 0.3; CA rating ([11]; 500 ppm a.i.): 5; CA rating ([11]; 1000 ppm a.i.): 5; SC rating ([12]; 500 ppm a.i.): 5; SC rating ([12]; 1000 ppm a.i.): 5; AN rating ([13]; 500 ppm a.i.): 5; AN rating ([13]; 1000 ppm a.i.): 5; PF rating ([14]; 500 ppm a.i.): 5; PF rating ([14]; 1000 ppm a.i.): 5; AA rating ([15]; 500 ppm a.i.): 5; AA rating ([15]; 1000 ppm a.i.): 5; Fungi Mean Score ([16]; 500 ppm a.i.): 5.0; Fungi Mean Score ([16]; 1000 ppm a.i.): 5.0; Spectrum of activity [17]: only display antifungal activity
2 | Fc1ccc([C@@]2(Cn3cncn3)O[C@H]2c2ccccc2Cl)cc1 [Epoxiconazole, cis-3-(2-Chlorphenyl)-2-(4-fluorphenyl)-2-(triazol-1-ylmethyl)-oxiran] | 2.5 | 2.5 | 37.5 | exhibited an improvement | exhibited an improvement | 1.5 | 2.5 | 29 | 3.5 | 3.5 | 30 | only showed marginal improvement | 0 | 0 | 0 | 0 | 0 | 0 | 0 | 0 | CF rating ([8]; 500 ppm a.i.): 0; CF rating ([8]; 1000 ppm a.i.): 0; PM rating ([9]; 500 ppm a.i.): 0; PM rating ([9]; 1000 ppm a.i.): 0; Bacteria Mean Score ([10]; 500 ppm a.i.): 0.0; Bacteria Mean Score ([10]; 1000 ppm a.i.): 0.0; CA rating ([11]; 500 ppm a.i.): 5; CA rating ([11]; 1000 ppm a.i.): 5; SC rating ([12]; 500 ppm a.i.): 5; SC rating ([12]; 1000 ppm a.i.): 5; AN rating ([13]; 500 ppm a.i.): 5; AN rating ([13]; 1000 ppm a.i.): 5; PF rating ([14]; 500 ppm a.i.): 3; PF rating ([14]; 1000 ppm a.i.): 3; AA rating ([15]; 500 ppm a.i.): 5; AA rating ([15]; 1000 ppm a.i.): 5; Fungi Mean Score ([16]; 500 ppm a.i.): 4.6; Fungi Mean Score ([16]; 1000 ppm a.i.): 4.6; Spectrum of activity [17]: only display antifungal activity
